≈ marks a conversion by molar mass, not a printed value.
Columns and labels:
[1] = Water solubility quantified by LC-MS/MS; assay type: physicochemical; details: for solubility: water
Description: We quantified the solubilities of AdiponRons by LC-MS/MS. Briefly, water (HPLC grade) was added in 50–100 μl increments to a glass vial containing either AdipoRon (0.97 mg) or AdipoRonPEG5 (1.69 mg), vortexed until the compound started to dissolve (AdipoRon, […]; AdipoRonPEG5, […]). The suspension was then stirred overnight away from light. The solution was transferred to Teflon tubes and centrifuged at 15,000 rpm at room temperature for 10 min. We then collected the supernatant (aqueous saturated solution) for dilution and analysis.
For standards, 98 μl water was added to an Eppendorf tube and combined with 200 μl of methanol containing 0.15% formic acid and 75 ng/ml […] Standard (IS, n-benzeylbenzamide in MeOH. IS final conc. = 50 ng/ml). Samples were spiked with 2 μl of IS. The samples were vortexed 15 s, and spun 2 × 13,200 rpm in a standard microcentrifuge. The supernatant was then analyzed by LC-MS/MS on a QTrap 4000 system (AB Sciex) with the following settings: Ion Source/Gas Parameters: CUR = 25, CAD = medium, IS = 5,000, TEM = 500, GS1 = 70, GS2 = 70. Buffer A: Water + 0.1% formic acid + 2 mM NH4OAC; Buffer B: methanol + 0.1% formic acid + 2 mM NH4OAC; flow rate 1.5 ml/min; Agilent C18 XDB column, 5 micron packing 50 × 4.6 mm size. HPLC elution gradient: 0–0.5 min 97% A, 0.5–2.0 min gradient to 100% B, 2.0–3.5 min 100% B, 3.5–3.6 min gradient to 97% A, 3.6–4.1 97% A. Compound transition 429.156 to 174.1 for AdipoRon and 665.289 to 135.2 for AdipoRonPEG5.

[2] = tested on: liver transcriptome of HFD-fed mice; assay: RNA-seq of liver of HFD-fed mice; assay type: in vivo, mouse
Description: RNA-sequence was performed by Novogene (Sacramento, CA) by utilizing isolated RNA. After the QC procedures, mRNA from eukaryotic organisms is enriched from total RNA using oligo(dT) beads. For prokaryotic samples, rRNA is removed using a specialized kit that leaves the mRNA. The mRNA from either eukaryotic or prokaryotic sources was then fragmented randomly in fragmentation buffer, followed by cDNA synthesis using random hexamers and reverse transcriptase. After first-strand synthesis, a custom second-strand synthesis buffer (Illumina) is added, with dNTPs, RNase H, and Escherichia coli polymerase I to generate the second strand by nick-translation, and AMPure XP beads are used to purify the cDNA. The final cDNA library is ready after a round of purification, terminal repair, A-tailing, ligation of sequencing adapters, size selection, and PCR enrichment. Library concentration was first quantified using a Qubit 2.0 fluorometer (Life Technologies) and then diluted to […] before checking insert size on an Agilent 2100 and quantifying to greater accuracy by quantitative PCR (Q-PCR) (library activity >2 nM). Libraries are fed into Novaseq6000 machines according to activity and expected data volume.
Differential expression of genes between AdipoRon-treated group and AdipoRonPEG5-treated group was analyzed by use of genes having an fpkm of ≥0 in all samples. Genes whose expression was “between 1.1 and 0.9 fold change” or “more than 1.1 fold up- “or “less than 0.9 fold down-“ regulated in liver RNA from control (n = 3) versus AdipoRon (n = 3) versus AdipoRonPEG5 group constituted “nc”, “up,” and “down” signatures. Gene expression was analyzed using Gene Ontology analysis (GO Consortium) and GenePattern software (Broad Institute).

[3] = tested on: AMPK and ACC phosphorylation; assay: Western blot of AMPK and ACC phosphorylation in liver and subcutaneous adipose tissue; assay type: in vivo, mouse
Description: Protein was extracted from the adipose tissue by homogenization in PBS supplemented with 1 mM EDTA, 20 mM NaF, 2 mM Na3VO4, and protease inhibitor cocktail. 5× RIPA buffer was added to the homogenate for a final concentration of 10 mM Tris-HCl, 2 mM EDTA, 0.3% NP40, 0.3% deoxycholate, 0.1% SDS, and 140 mM NaCl, pH 7.4. The sample was centrifuged at 10,000 g for 5 min. In total, 20–50 μg/lane of supernatant protein was separated by SDS-PAGE (NP0335BOX, Thermo Fisher) and transferred to nitrocellulose membrane. The blots were then incubated overnight at 4°C with primary antibodies (1:1,000) in a 1% BSA TBST-blocking solution. Primary antibodies are listed in supplemental Table S3. Primary antibodies were detected using secondary antibodies labeled with infrared dyes emitting at 700 nm or 800 nm (1:5,000, Li-Cor Bioscience 925-68073 and 926-32213, respectively) The Odyssey Infrared Imager was used to visualized western blots with Li-Cor IRdye secondary antibodies.

[4] = tested on: INS-1 cells; assay: qPCR gene expression in INS-1 cells; assay type: cell-based, rat; details: for genes related to insulin secretion and β-cell differentiation transcription factors: absence of palmitate
[5] = tested on: INS-1 β-cells; assay: Palmitate-induced cell death protection assay (PI fluorescence plate reader); assay type: cell-based, rat; details: PA 0.25 mM, 24 h
Description: A 7.1 mM palmitic acid stock solution was prepared in 95% ethanol by incubating at 37°C. In parallel, 2% fatty-acid-free BSA was solubilized in sterile nanopure water at 37°C. The palmitic acid/BSA complex solution was then prepared by incubating the components in a molar ratio of 5:1 at 37°C in a shaking water bath for 1 h and was used directly for INS-1 stimulation experiments. Control cultures were carried out in the presence of BSA/ethanol in RPMI without palmitic acid.
Quantification of β-cell death by PI staining was carried out on a fluorescence plate reader. Following a 2 h preincubation under serum-free conditions, INS-1 cells (60k cells/well, 96-well plate (COSTAR ref # 3603)) were kept for 24 h in Phenol Red-free FBS-free RPMI 0.5% BSA as a control or containing 0.25 mM PA-BSA in the presence or absence of treatment. Cells were stained for 10 min at 4°C with propidium iodide (PI) at 1 μg/ml (added to the existing media to avoid loss of dead cells). PI fluorescence intensity was measured with a plate reader (PHERAstar, BMG Labtech).

| Compound | solubility in water ([1]; LC-MS/MS, mean ± SD) [µg/mL] | solubility ([1]; LC-MS/MS, mean ± SD) [µg/mL] | AdipoR1 / AdipoR2 signaling pathway genes ([2]; HFD 4 weeks, 5 mg/kg 5 days) | upregulation of genes of the family of ceramidases ([2]; HFD 4 weeks, 5 mg/kg 5 days) | lipogenesis genes Acly and Scd1 ([2]; top 30 genes) | p-AMPK levels in the liver, AdipoRon versus AdipoRonPEG5 ([3]; HFD-induced obese mice) | genes related to insulin secretion and β-cell differentiation transcription factors ([4]; 20 μM) | protection from PA-induced cell death ([5]; 20 μM) | times more soluble in water than the parent molecule ([1]; vs AdipoRon) | gluconeogenesis-related genes in the liver ([2]; HFD 4 weeks, 5 mg/kg 5 days) | triglyceride- and glucose-metabolism-related genes incl. scd1, pck1 ([2]; HFD 4 weeks, 5 mg/kg 5 days) | glutathione S-transferases Gstm1 and Gstm2 ([2]; top 30 genes) | ACC phosphorylation in the subcutaneous adipose tissue ([3]; single treatment) | AMPK pathway in the liver ([3]; single treatment) | expression of Ins1, Nkx6-1 and Kcnj11 ([4]; 20 μM, presence of palmitate) | expression of Hif-1α ([4]; PA-stressed INS-1 cells) | reduction of PA-induced apoptosis ([5]; 20 μM) [%] | protective activity against PA-induced cell death ([5]; dose range) |
| --- | --- | --- | --- | --- | --- | --- | --- | --- | --- | --- | --- | --- | --- | --- | --- | --- | --- | --- |
| O=C(COc1ccc(C(=O)c2ccccc2)cc1)NC1CCN(Cc2ccccc2)CC1 [AdipoRon] | 9 (≈ 21 µM) | 8.99 ± 0.15 (≈ 21 µM) | sided with AdipoR2 signaling | to a lesser extent | highly upregulated | higher | suppress | further modest increase in protection | – | – | – | – | – | – | – | – | – | – |
| O=C(COc1ccc(C(=O)c2ccccc2)cc1)NC1CCN(Cc2ccc(OCCOCCOCCOCCOCCO)cc2)CC1 [AdipoRonPEG5] | – | 910 ± 36 (≈ 1370 µM) | preference toward amplifying AdipoR1 signaling pathway | highest | – | – | suppress | – | about 100 times | inhibitory effect | downregulated | prominent increases | enhanced | activated | significantly increased | elevates | ~50 | potent antiapoptotic activity |
